Assay results: patent US12398107B2, “Fungicidal nitroanilino substituted pyrazoles” (FMC Corporation, priority 2018, dated 2025)

Assays:
Assay type in all cases: in vivo
[1] = system: Puccinia recondita f. sp. tritici; assay: Test B: wheat leaf rust, preventive spray on wheat seedlings; settings: 50 ppm, 100 = 100% disease control, 0 = no control relative to controls
From the text: General protocol for preparing test suspensions for Tests A-F: the test compounds were first dissolved in acetone in an amount equal to 3% of the final volume and then suspended at the desired concentration (in ppm) in acetone and purified water (50/50 mix by volume) containing 250 ppm of the surfactant PEG400 (polyhydric alcohol esters). The resulting test suspensions were then used in Tests A-F. The test solution was sprayed to the point of run-off on wheat seedlings. The following day the seedlings were inoculated with a spore suspension of Puccinia recondita f. sp. tritici (the causal agent of wheat leaf rust) and incubated in a saturated atmosphere at 20° C. for 24 h, and then moved to a growth chamber at 20° C. for 7 days, after which time disease ratings were made. A rating of 100 indicates 100% disease control and a rating of 0 indicates no disease control (relative to the controls). A dash (-) indicates the compound was not tested.

[2] = system: Blumeria graminis f. sp. tritici; assay: Test C: wheat powdery mildew, preventive spray on wheat seedlings; settings: 50 ppm, rated after 8 days, 100 = 100% disease control, 0 = no control
From the text: General protocol for preparing test suspensions for Tests A-F: the test compounds were first dissolved in acetone in an amount equal to 3% of the final volume and then suspended at the desired concentration (in ppm) in acetone and purified water (50/50 mix by volume) containing 250 ppm of the surfactant PEG400 (polyhydric alcohol esters). The resulting test suspensions were then used in Tests A-F. The test suspension was sprayed to the point of run-off on wheat seedlings. The following day the seedlings were inoculated with a spore dust of Blumeria graminis f. sp. tritici, (also known as Erysiphe graminis f. sp. tritici, the causal agent of wheat powdery mildew) and incubated in a growth chamber at 20° C. for 8 days, after which time visual disease ratings were made. A rating of 100 indicates 100% disease control and a rating of 0 indicates no disease control (relative to the controls). A dash (-) indicates the compound was not tested.

Alternaria solani = assay: Test F: tomato early blight, preventive spray on tomato seedlings; settings: 50 ppm, 100 = 100% disease control, 0 = no control
From the text: (§1) General protocol for preparing test suspensions for Tests A-F: the test compounds were first dissolved in acetone in an amount equal to 3% of the final volume and then suspended at the desired concentration (in ppm) in acetone and purified water (50/50 mix by volume) containing 250 ppm of the surfactant PEG400 (polyhydric alcohol esters). The resulting test suspensions were then used in Tests A-F. The test suspension was sprayed to the point of run-off on tomato seedlings. The following day the seedlings were inoculated with a spore suspension of Alternaria solani (the causal agent of tomato early blight) and incubated in a saturated atmosphere at 27° C. for 48 h, and then moved to a growth chamber at 20° C. for 3 days, after which time visual disease ratings were made. A rating of 100 indicates 100% disease control and a rating of 0 indicates no disease control (relative to the controls). A dash (-) indicates the compound was not tested.

Botrytis cinerea = assay: Test E: tomato Botrytis, preventive spray on tomato seedlings; settings: 50 ppm, 100 = 100% disease control, 0 = no control
From the text: as §1, with “Botrytis cinerea” for “Alternaria solani”, “Botrytis)” for “early blight)”, “20°” for “27°”, “24°” for “20°”

Phakopsora pachyrhizi = assay: Test D: Asian soybean rust, preventive spray on soybean seedlings; settings: 50 ppm, 100 = 100% disease control, 0 = no control
From the text: General protocol for preparing test suspensions for Tests A-F: the test compounds were first dissolved in acetone in an amount equal to 3% of the final volume and then suspended at the desired concentration (in ppm) in acetone and purified water (50/50 mix by volume) containing 250 ppm of the surfactant PEG400 (polyhydric alcohol esters). The resulting test suspensions were then used in Tests A-F.
The test solution was sprayed to the point of run-off on soybean seedlings. The following day the seedlings were inoculated with a spore suspension of Phakopsora pachyrhizi (the causal agent of Asian soybean rust) and incubated in a saturated atmosphere at 22° C. for 24 h and then moved to a growth chamber at 22° C. for 8 days, after which time visual disease ratings were made.
A rating of 100 indicates 100% disease control and a rating of 0 indicates no disease control (relative to the controls). A dash (-) indicates the compound was not tested.

Septoria tritici = assay: Test A: wheat leaf blotch, preventive spray on wheat seedlings; settings: 50 ppm, 100 = 100% disease control, 0 = no control relative to controls
From the text: General protocol for preparing test suspensions for Tests A-F: the test compounds were first dissolved in acetone in an amount equal to 3% of the final volume and then suspended at the desired concentration (in ppm) in acetone and purified water (50/50 mix by volume) containing 250 ppm of the surfactant PEG400 (polyhydric alcohol esters). The resulting test suspensions were then used in Tests A-F. The test solution was sprayed to the point of run-off on wheat seedlings. The following day the seedlings were inoculated with a spore suspension of Septoria tritici (the causal agent of wheat leaf blotch) and incubated in a saturated atmosphere at 24° C. for 48 h, and then moved to a growth chamber at 20° C. for 17 days, after which time disease ratings were made. A rating of 100 indicates 100% disease control and a rating of 0 indicates no disease control (relative to the controls). A dash (-) indicates the compound was not tested.

Structure (SMILES) | Test B disease control rating (wheat leaf rust) [1] [%] | Test C disease control rating (wheat powdery mildew) [2] [%] | Test F disease control rating (tomato early blight) (Alternaria solani) [%] | Test E disease control rating (tomato Botrytis) (Botrytis cinerea) [%] | Test D disease control rating (Asian soybean rust) (Phakopsora pachyrhizi) [%] | pest or weed control at 50 ppm (Septoria tritici; Zymoseptoria tritici, read-out: Test A disease control rating (wheat leaf blotch)) [%] | pest or weed control at 50 ppm ([1]; read-out: Test B disease control rating (wheat leaf rust)) [%] | pest or weed control at 50 ppm ([2]; Blumeria graminis, 192 h, read-out: Test C disease control rating (wheat powdery mildew)) [%] | pest or weed control at 50 ppm (Alternaria solani; Alternaria solani, read-out: Test F disease control rating (tomato early blight)) [%] | pest or weed control at 50 ppm (Botrytis cinerea; Botrytis cinerea, read-out: Test E disease control rating (tomato Botrytis)) [%] | pest or weed control at 50 ppm (Phakopsora pachyrhizi; Phakopsora pachyrhizi, read-out: Test D disease control rating (Asian soybean rust)) [%] | Test A disease control rating (wheat leaf blotch) (Septoria tritici) [%]
COc1ccc(Nc2c(-c3c(F)cc(F)cc3Cl)c(C)nn2C)c([N+](=O)[O-])c1 [Compound 89] | 100 | 99 | 99 | 99 | 80 |  |  |  |  |  |  | 
Cc1nn(C)c(Nc2c(F)cccc2[N+](=O)[O-])c1-c1ccc(C#N)cc1Cl [Compound 113, 3-chloro-4-[5-[(2-fluoro-6-nitrophenyl)amino]-1,3-dimethyl-1H-pyrazol-4-yl]benzonitrile] |  |  |  |  |  | 100 | 99 | 97 | 99 | 99 | 13 | 
Cc1nn(C)c(Nc2c(F)cc(F)cc2[N+](=O)[O-])c1-c1ccc(F)cc1Br [Compound 51] | 100 | 100 | 99 | 98 | 79 |  |  |  |  |  |  | 100
COc1ccc(Nc2c(-c3ccc(F)cc3F)c(C)nn2C)c([N+](=O)[O-])c1 [Compound 88] | 97 | 84 | 9 | 99 | 0 |  |  |  |  |  |  | 
COc1ccc(-c2c(C)nn(C)c2Nc2ccccc2[N+](=O)[O-])c(Cl)c1 [Compound 140] | 86 | 31 | 93 | 100 | 0 |  |  |  |  |  |  | 99
Cc1nn(C)c(Nc2cccc(Cl)c2[N+](=O)[O-])c1-c1ccc(F)cc1Cl [Compound 34] | 54 | 13 | 0 | 71 | 0 |  |  |  |  |  |  | 100
COc1ccc(Nc2c(-c3c(F)cc(C#N)cc3F)c(C)nn2C)c([N+](=O)[O-])c1 [Compound 150] | 100 | 98 | 99 | 100 | 13 |  |  |  |  |  |  | 100
COCc1ccc(Nc2c(-c3ccc(F)cc3Cl)c(C)nn2C)c([N+](=O)[O-])c1 [Compound 4] | 86 | 76 | 0 | 74 | 0 |  |  |  |  |  |  | 
CCc1nn(C)c(Nc2c(F)cc(Br)cc2[N+](=O)[O-])c1-c1ccc(F)cc1F [Compound 171] | 91 | 99 | 88 | 97 | 0 |  |  |  |  |  |  | 100
COc1ccc(Nc2c(-c3c(F)cccc3F)c(C)nn2C)c([N+](=O)[O-])c1 [Compound 87] | 99 | 98 | 93 | 98 | 0 |  |  |  |  |  |  | 
Cc1ccc(Nc2c(-c3ccc(F)cc3F)c(C)nn2C)c([N+](=O)[O-])c1 [Compound 107] | 91 | 61 | 0 | 98 | 0 |  |  |  |  |  |  | 
Cc1ccc(Nc2c(-c3c(F)cc(F)cc3Cl)c(C)nn2C)c([N+](=O)[O-])c1 [Compound 106] | 100 | 98 | 68 | 99 | 0 |  |  |  |  |  |  | 
CCc1ccc(Nc2c(-c3ccc(F)cc3Cl)c(C)nn2C)c([N+](=O)[O-])c1 [Compound 6] | 74 | 27 | 0 | 55 | 0 |  |  |  |  |  |  | 
